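48-hour exposure; five concentrations; linearly interpolated endpoints. GI50: concentration for 50% inhibition of growth.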 Activity calls are given as the source filed them. Cut-off read from the data, not from the text of the source: active = GI50 up to about 1.1 µM and inactive = higher.
What was measured:
Test in all cases: NCI tumour cell line growth inhibition, 48 h
NCI-H460 = system: NCI-H460
HL-60 = system: HL-60
MDA-MB-231 = system: MDA-MB-231
UO-31 = system: UO-31
HOP-62 = system: HOP-62
M14 = system: M14
CAKI-1 = system: CAKI-1
SF-295 = system: SF-295
SW-620 = system: SW-620
Malme-3M = system: Malme-3M
HT-29 = system: HT-29
CCRF-CEM = system: CCRF-CEM
OVCAR-5 = system: OVCAR-5
Hs-578T = system: Hs-578T
OVCAR-8 = system: OVCAR-8
786-0 = system: 786-0
BT-549 = system: BT-549
SK-MEL-2 = system: SK-MEL-2
COLO 205 = system: COLO 205
DU-145 = system: DU-145

With COc1ccc(-c2c(N)n(-c3nc4ccccc4s3)c(=O)c3cc([N+](=O)[O-])ccc23)cc1 the GI50 (NCI-H460) was 3.69 µM (inactive), the GI50 (HL-60) was 99.8 µM (inactive) and the GI50 (MDA-MB-231) was 16.9 µM (inactive). The GI50 (UO-31) was 16.3 µM (inactive), the GI50 (HOP-62) was 14 µM (inactive) and the GI50 (M14) was 17.8 µM (inactive). The GI50 (CAKI-1) was 21.3 µM (inactive), the GI50 (SF-295) was 22.3 µM (inactive) and the GI50 (SW-620) was 19.7 µM (inactive). For the same molecule, the GI50 (Malme-3M) was 20.7 µM (inactive), the GI50 (HT-29) was 49 µM (inactive) and the GI50 (CCRF-CEM) was 4.44 µM (inactive). The GI50 (OVCAR-5) was 22.2 µM (inactive), the GI50 (Hs-578T) was 13.7 µM (inactive) and the GI50 (OVCAR-8) was 11.2 µM (inactive). The GI50 (786-0) was 4.29 µM (inactive), the GI50 (BT-549) was 89.9 µM (inactive) and the GI50 (SK-MEL-2) was 25.4 µM (inactive).
In the case of Cc1cn(C2CC(N/C(=N/C#N)NCC3OC(n4cnc5c(N)ncnc54)CC3O)C(CO)O2)c(=O)[nH]c1=O (configuration not stated), the GI50 (NCI-H460) is reported as > 100 µM (inactive), the GI50 (COLO 205) is reported as > 100 µM (inactive) and the GI50 (HL-60) is reported as 77.6 µM (inactive). For the same molecule, the GI50 (MDA-MB-231) was > 100 µM (inactive), the GI50 (UO-31) was > 100 µM (inactive) and the GI50 (HOP-62) was > 100 µM (inactive). The GI50 (M14) was > 100 µM (inactive), the GI50 (CAKI-1) was > 100 µM (inactive) and the GI50 (SF-295) was > 100 µM (inactive). For the same molecule, the GI50 (SW-620) was > 100 µM (inactive), the GI50 (Malme-3M) was > 100 µM (inactive) and the GI50 (HT-29) was > 100 µM (inactive). For the same molecule, the GI50 (CCRF-CEM) was > 100 µM (inactive), the GI50 (DU-145) was > 100 µM (inactive) and the GI50 (OVCAR-5) was > 100 µM (inactive). For the same molecule, the GI50 (Hs-578T) was > 100 µM (inactive), the GI50 (OVCAR-8) was > 100 µM (inactive) and the GI50 (786-0) was > 100 µM (inactive). For the same molecule, the GI50 (SK-MEL-2) was > 100 µM (inactive).
In the case of CC1=CC2=C(OCO1)C(=O)c1ccccc1C2=O, the GI50 (NCI-H460) is reported as 7.11 µM (inactive), the GI50 (COLO 205) is reported as 5.86 µM (inactive) and the GI50 (HL-60) is reported as 3.95 µM (inactive). For the same molecule, the GI50 (MDA-MB-231) was 4.13 µM (inactive), the GI50 (UO-31) was 7.94 µM (inactive) and the GI50 (HOP-62) was 6.87 µM (inactive). The GI50 (M14) was 4.73 µM (inactive), the GI50 (CAKI-1) was 8.39 µM (inactive) and the GI50 (SF-295) was 4.17 µM (inactive). The GI50 (SW-620) was 8.09 µM (inactive), the GI50 (Malme-3M) was 2.51 µM (inactive) and the GI50 (HT-29) was 7.4 µM (inactive). The GI50 (CCRF-CEM) was 10.1 µM (inactive), the GI50 (DU-145) was 2.16 µM (inactive) and the GI50 (OVCAR-5) was 6.21 µM (inactive). The GI50 (Hs-578T) was 1.67 µM (inactive), the GI50 (OVCAR-8) was 8.87 µM (inactive) and the GI50 (786-0) was 12.8 µM (inactive). For the same molecule, the GI50 (SK-MEL-2) was 0.652 µM (active).
N/C(=N\O)N/N=C/c1ccc2c(c1)OCO2 was tested, and the GI50 (NCI-H460) was 27 µM (inactive), the GI50 (COLO 205) was 4.74 µM (inactive) and the GI50 (HL-60) was 18.2 µM (inactive). The GI50 (MDA-MB-231) was 38.5 µM (inactive), the GI50 (HOP-62) was 26.6 µM (inactive) and the GI50 (M14) was 13.5 µM (inactive). For the same molecule, the GI50 (CAKI-1) was 30.3 µM (inactive), the GI50 (SF-295) was 33.9 µM (inactive) and the GI50 (SW-620) was 63.4 µM (inactive). For the same molecule, the GI50 (Malme-3M) was 17.5 µM (inactive), the GI50 (HT-29) was 36.1 µM (inactive) and the GI50 (CCRF-CEM) was 19.4 µM (inactive). For the same molecule, the GI50 (DU-145) was 7.16 µM (inactive), the GI50 (OVCAR-5) was 24.7 µM (inactive) and the GI50 (Hs-578T) was > 100 µM (inactive). The GI50 (OVCAR-8) was 12.5 µM (inactive), the GI50 (786-0) was 12.9 µM (inactive) and the GI50 (SK-MEL-2) was 22 µM (inactive).
For Oc1c2cc(Cl)cc1COCc1cc(Cl)cc(c1O)COCc1cc(Cl)cc(c1O)COC2, the GI50 (NCI-H460) was 22.9 µM (inactive), the GI50 (COLO 205) was 89.5 µM (inactive) and the GI50 (HL-60) was 2.88 µM (inactive). The GI50 (UO-31) was 32.6 µM (inactive), the GI50 (HOP-62) was 19.7 µM (inactive) and the GI50 (M14) was 18.7 µM (inactive). For the same molecule, the GI50 (SF-295) was > 100 µM (inactive), the GI50 (SW-620) was > 100 µM (inactive) and the GI50 (CCRF-CEM) was 9.44 µM (inactive). For the same molecule, the GI50 (DU-145) was 28.2 µM (inactive), the GI50 (OVCAR-5) was 40.3 µM (inactive) and the GI50 (OVCAR-8) was 11.8 µM (inactive). The GI50 (786-0) was 9.42 µM (inactive), the GI50 (BT-549) was 31.3 µM (inactive) and the GI50 (SK-MEL-2) was > 100 µM (inactive).
With O=C1CCCCC/C1=C\c1cccc(F)c1 the GI50 (NCI-H460) was 54.5 µM (inactive), the GI50 (COLO 205) was > 100 µM (inactive) and the GI50 (HL-60) was 17.1 µM (inactive). The GI50 (MDA-MB-231) was > 100 µM (inactive), the GI50 (UO-31) was 57.7 µM (inactive) and the GI50 (HOP-62) was > 100 µM (inactive). The GI50 (M14) was 43.4 µM (inactive), the GI50 (CAKI-1) was 65.9 µM (inactive) and the GI50 (SF-295) was > 100 µM (inactive). For the same molecule, the GI50 (SW-620) was 83.8 µM (inactive), the GI50 (Malme-3M) was > 100 µM (inactive) and the GI50 (HT-29) was 60.5 µM (inactive). For the same molecule, the GI50 (CCRF-CEM) was 24.3 µM (inactive), the GI50 (DU-145) was > 100 µM (inactive) and the GI50 (OVCAR-5) was > 100 µM (inactive). For the same molecule, the GI50 (OVCAR-8) was > 100 µM (inactive), the GI50 (786-0) was > 100 µM (inactive) and the GI50 (BT-549) was 51.9 µM (inactive). For the same molecule, the GI50 (SK-MEL-2) was > 100 µM (inactive).
COC(=O)CSc1cc(Cl)c(C)cc1S(=O)(=O)Nc1n[nH]c(N)n1 was tested, and the GI50 (NCI-H460) was > 10 µM (inactive), the GI50 (COLO 205) was > 10 µM (inactive) and the GI50 (HL-60) was > 10 µM (inactive). The GI50 (UO-31) was > 10 µM (inactive), the GI50 (HOP-62) was > 10 µM (inactive) and the GI50 (M14) was > 10 µM (inactive). For the same molecule, the GI50 (CAKI-1) was > 10 µM (inactive), the GI50 (SF-295) was > 10 µM (inactive) and the GI50 (SW-620) was > 10 µM (inactive). The GI50 (Malme-3M) was > 10 µM (inactive), the GI50 (HT-29) was > 10 µM (inactive) and the GI50 (CCRF-CEM) was > 10 µM (inactive). For the same molecule, the GI50 (DU-145) was > 10 µM (inactive), the GI50 (OVCAR-5) was > 10 µM (inactive) and the GI50 (Hs-578T) was > 10 µM (inactive). For the same molecule, the GI50 (OVCAR-8) was > 10 µM (inactive), the GI50 (786-0) was > 10 µM (inactive) and the GI50 (BT-549) was > 10 µM (inactive). The GI50 (SK-MEL-2) was > 10 µM (inactive).
